Assay results from patent US20260021193A1, “IMMUNOCONJUGATES AND METHODS” (Immunome, Inc., priority 2022, published 2026).
pIC50: −log10 of the molar value. Counter-ions that a name gives are not always drawn. Like-named read-outs stand apart in the source and are kept apart here.

How the values were obtained:
Jeko-1 = assay: CTG assay of payloads, Jeko-1 cells; assay type: cell-based, human; details: 72 h, CellTiter-Glo
Source text: (§1) The CTG assay is a method of determining the number of viable cells in culture based on quantitation of the ATP present, an indicator of metabolically active cells. The cell assay requires the addition of a single reagent, Cell Titer Glo, in which cells are lysed and generation of a luminescent signal is produced. The luminescent signal is proportional to the amount of ATP present. The amount of ATP is directly proportional to the number of cells present in culture. For this assay, cells were ensured to be in log-phase for either Jeko-1 or MDA-MB-468. Cells were transferred to 96 wells and treated with compounds in three-fold serial dilution starting from […] (10 points dilution), for 72 h. Cell viability was analyzed with CellTiter-Glo® Luminescent Cell Viability Assay (Promega) following manufactures' instruction. Percentage of viable cells in each compound concentration was determined by normalizing with the luminescence of vehicle control and plotted into percentage of viability versus dose response curve by nonlinear fit in GraphPad Prism software.

[1] = Human hepatocyte clearance (HHEP CL); assay type: in vitro ADME; parameters: CLint scaled / half-life: dose or concentration left out as unconfirmed; details: for half-life / CLint scaled: both sexes
Procedure: Suspensions of human hepatocytes (from 10 mixed gender human donors, final concentration 0.5×10^6 cell/mL) in Williams' E medium were incubated for 90 min with a test compound (0.90% acetonitrile and 0.10% DMSO, final concentration […]) and positive controls (7-Ethoxycoumarin, 7-Hydroxycoumarin, 0.90% acetonitrile and 0.10% DMSO, final concentration […]), with constant shaking at about 600 rpm at 37° C. in an incubator at 5% CO2 and 95% humidity. The total volume of incubation was 200 μl. A sample ([…]) was taken out at T0, 15, 30, 60 and 90 min, which was added intermediately to the ice-cold stop solution (acetonitrile with 200 ng/mL of to butamide and labetalol as internal standard) (125 μl), and vortexed at 500 rpm for 10 min, centrifuged at 3220×g for 20 min at 4° C. Analytical plates were sealed and stored at 4° C. until LCMS analysis. Viability of hepatocytes at pre-incubation was determined to be 84.5%.
(§2) Human liver microsome clearance assay assess metabolism by the cytochrome P450 system (phase I enzymes). These enzymes oxidize substrates by incorporating oxygen atoms into hydrocarbons, thus causing the introduction of hydroxyl groups, or N- O- and S-dealkylation of substrates and forming more polar products easier to be cleared. Human hepatocyte clearance assay measures more broadly the overall cellular metabolism of the test compound (phase I and phase II enzyme pathways). Phase II enzymes catalyze the conjugation reaction of xenobiotic metabolites and charged species, such as glutathione, sulfate, glycine, or glucuronic acid to form even more polar compounds for easier clearance.

[2] = Human liver microsome clearance (HLM CL); assay type: in vitro ADME; parameters: CLint scaled / half-life: dose or concentration left out as unconfirmed
Procedure: Working solution was prepared by adding 5 μL of compound and control stock solution (10 mM in dimethyl sulfoxide, DMSO) to 495 μL of acetonitrile (ACN) (intermediate solution concentration: 100 μM, 99% CAN and 1% DMSO. The appropriate concentrations of microsome working solutions were prepared in 100 mM potassium phosphate buffer. After reaction plates containing mixtures of compound and microsomes were pre-incubated at 37° C. for 10 min, […] of 2 mM of NADPH and 2 mM of MgCl2 solution was added to start the reaction. The final concentrations of incubation medium were as follows: microsome—0.5 mg protein/mL, test compound/control […], NADPH—1 mM, MgCl2—1 mM, acetonitrile 0.99%, DMSO 0.01%. Incubations were performed at 37° C. for 60 min. Samples were taken out at T0, T5, T15, T30, T45 and T60, which was added intermediately to the ice-cold stop solution (acetonitrile with 200 ng/mL of to butamide and labetalol as internal standard) (125 μl), shaken for 10 min, centrifuged at 4000 rpm for 20 min at 4° C. Analytical plates were analyzed by LCMS.
as §2

[3] = PAMPA (Parallel Artificial Membrane Permeability Assay); assay type: physicochemical; parameters: dose or concentration left out as unconfirmed
Source text: PAMPA is a method which determines the permeability of substances from a donor compartment, through a lipid-infused artificial membrane into an acceptor compartment. See Ottaviani, G.; Martel, S.; Carrupt, P-A. “Parallel Artificial Membrane Permeability Assay: A New Membrane for the Fast Prediction of Passive Human Skin Permeability”, Journal of Medicinal Chemistry, 2006, 49 (13), 3948-3954). A multi-well microtitre plate is used for the donor and a membrane/acceptor compartment is placed on top; the whole assembly is commonly referred to as a “sandwich”. At the beginning of the test, the drug is added to the donor compartment, and the acceptor compartment is drug-free. After an incubation period which may include stirring, the sandwich is separated, and the amount of drug is measured in each compartment. Mass balance allows calculation of drug that remains in the membrane.
The PAMPA was performed by Pion Inc using the GIT-0 lipid and 5 mM donor solution in pH 5.0 and pH 7.4 PRISMA buffer (containing 0.05% DMSO). The higher PAMPA data has been associated with better bystander killing. (Ogitani Y.; Hagihara K.; Oitate, M.; Naito, H.; Agatsuma T. “Bystander killing effect of DS-8201a, a novel anti-human epidermal growth factor receptor 2 antibody-drug conjugate, in tumors with human epidermal growth factor receptor 2 heterogeneity” Cancer Science, 2016, 107 (7), 1039-1046).

MDA-MB-468 = assay: CTG assay of payloads, MDA-MB-468 cells; assay type: cell-based, human; details: Table 1, 72 h, CellTiter-Glo
Source text: as §1

Compound	pIC50 (Jeko-1; Homo sapiens, JeKo-1, Table 2)	half-life ([1]; human, hepatocytes)	half-life ([2]; human, microsomes)	Papp ([3]; pH 5)	Papp ([3]; pH 7.4)	other results
C=CC[C@H]1CCc2c(C)c(F)cc3nc4c(c1c23)Cn1c-4cc2c(c1=O)COC(=O)[C@]2(O)CC (single isomer, unassigned) [Compound 17-87]	9.24	31 min	5.4 min	–	–	–
CC[C@@]1(O)C(=O)OCc2c1cc1n(c2=O)Cc2c-1nc1cc(F)c(C)c3c1c2[C@@H](CCCO)CC3 (single isomer, unassigned) [Compound 13-64]	9.55	79.4 min	22 min	14.6 ×10⁻⁶ cm/s	10.6 ×10⁻⁶ cm/s	–
CC[C@@]1(O)C(=O)OCc2c1cc1n(c2=O)Cc2c-1nc1cc(F)c(C)c3c1c2[C@@](C)(N(C)CCO)CC3.Cl (single isomer, unassigned) [Compound 6-44]	–	–	–	–	–	half-life ([1]; Table 1, human hepatocytes, read-out: HHEP (T1/2)): 80 min; half-life ([2]; Table 1, human liver microsomes, read-out: HLM (T1/2)): 24 min; Papp ([3]; Table 1, pH 5.0, read-out: PAMPA Pe pH 5.0): 54.9 ×10⁻⁶ cm/s; Papp ([3]; Table 1, pH 7.4, read-out: PAMPA Pe pH 7.4): 8.3 ×10⁻⁶ cm/s
CC[C@@]1(O)C(=O)OCc2c1cc1n(c2=O)Cc2c-1nc1cc(F)c(C)c3c1c2[C@@H](NC(=O)CO)CC3 [Dxd, reference compound]	–	–	–	–	–	pIC50 (Jeko-1; Table 1): 8.85; pIC50 (Jeko-1; Table 2): 9.28; pIC50 (MDA-MB-468): 7.94; HHEP (T1/2) ([1]; Table 1, human hepatocytes): (217) min; HHEP Cl ([1]; Table 1, human hepatocytes intrinsic clearance): 17.8 mL/min/kg; HHEP Cl (T1/2) ([1]; Table 2, one value per cell): >217; HLM Cl ([2]; Table 1, human liver microsome clearance): 8.6 mL/min/kg; HLM (T1/2) ([2]; Table 1, human liver microsomes): (>145); HLM Cl (T1/2) ([2]; Table 2, one value per cell): 52.2
CC[C@@]1(O)C(=O)OCc2c1cc1n(c2=O)Cc2c-1nc1cc(F)c(C)c3c1c2[C@](C)(N(C)CCO)CC3 (single isomer, unassigned) [Compound 7-45, hydrochloride]	–	42 min	9 min	56.6 ×10⁻⁶ cm/s	7.5 ×10⁻⁶ cm/s	pIC50 (Jeko-1; Homo sapiens, JeKo-1, Table 1): 7.47; pIC50 (MDA-MB-468; Homo sapiens, MDA-MB-468): 6.59; CLint scaled ([1]; human, hepatocytes): 92.2 mL/min/kg; CLint scaled ([2]; human, microsomes): 137 mL/min/kg
CC[C@@]1(O)C(=O)OCc2c1cc1n(c2=O)Cc2c-1nc1cc(F)c(C)c3c1c2[C@](C)(CCCO)CC3 (single isomer, unassigned) [Compound 15-75]	9.06	76.5 min	22.4 min	16.5 ×10⁻⁶ cm/s	11.5 ×10⁻⁶ cm/s	–
CC[C@@]1(O)C(=O)OCc2c1cc1n(c2=O)Cc2c-1nc1cc(F)c(C)c3c1c2[C@@](C)(CCO)CC3 (single isomer, unassigned) [Compound 14-71]	9.74	47 min	10.8 min	25 ×10⁻⁶ cm/s	17.3 ×10⁻⁶ cm/s	–
CC[C@@]1(O)C(=O)OCc2c1cc1n(c2=O)Cc2c-1nc1cc(F)c(C)c3c1c2[C@@](C)(COCCO)CC3 (single isomer, unassigned) [Compound 16-83]	8.96	113 min	25.7 min	47.7 ×10⁻⁶ cm/s	25.1 ×10⁻⁶ cm/s	–
CC[C@@]1(O)C(=O)OCc2c1cc1n(c2=O)Cc2c-1nc1cc(F)c(C)c3c1c2[C@@](C)(CO)CC3 (single isomer, unassigned) [Compound 3-28]	–	61 min	23 min	64 ×10⁻⁶ cm/s	8.4 ×10⁻⁶ cm/s	pIC50 (Jeko-1; Homo sapiens, JeKo-1, Table 1): 8.89; pIC50 (MDA-MB-468; Homo sapiens, MDA-MB-468): 8.00; CLint scaled ([1]; human, hepatocytes): 62.9 mL/min/kg; CLint scaled ([2]; human, microsomes): 53.8 mL/min/kg
CC[C@@]1(O)C(=O)OCc2c1cc1n(c2=O)Cc2c-1nc1cc(F)c(C)c3c1c2[C@@H](CCO)CC3 (single isomer, unassigned) [Compound 12-59]	9.49	64.3 min	20.1 min	46.9 ×10⁻⁶ cm/s	33.4 ×10⁻⁶ cm/s	–
C=CC[C@@H]1CCc2c(C)c(F)cc3nc4c(c1c23)Cn1c-4cc2c(c1=O)COC(=O)[C@]2(O)CC (single isomer, unassigned) [Compound 17-86]	9.03	46 min	13 min	–	–	–
CC[C@@]1(O)C(=O)OCc2c1cc1n(c2=O)Cc2c-1nc1cc(F)c(C)c3c1c2C(CO)(CO)CC3 [Compound 2-20, (S)-9-ethyl-5-fluoro-9-hydroxy-1,1-bis(hydroxymethyl)-4-methyl-2,3,12,15-tetrahydrobenzo [de]pyrano[3′,4′:6,7]indolizino[1,2-b]quinoline-10,13(1H,9H)-dione]	–	161 min	27 min	–	–	pIC50 (Jeko-1; Homo sapiens, JeKo-1, Table 1): 7.39; pIC50 (MDA-MB-468; Homo sapiens, MDA-MB-468): 6.45; CLint scaled ([1]; human, hepatocytes): 24 mL/min/kg; CLint scaled ([2]; human, microsomes): 46 mL/min/kg
CC[C@@]1(O)C(=O)OCc2c1cc1n(c2=O)Cc2c-1nc1cc(F)c(C)c3c1c2[C@@](C)(CCCO)CC3 (single isomer, unassigned) [Compound 15-76]	9.57	40.8 min	5.2 min	45.5 ×10⁻⁶ cm/s	33.2 ×10⁻⁶ cm/s	–
CC[C@@]1(O)C(=O)OCc2c1cc1n(c2=O)Cc2c-1nc1cc(F)c(C)c3c1c2[C@H](CCO)CC3 (single isomer, unassigned) [Compound 12-58]	9.62	68.1 min	20.1 min	2.9 ×10⁻⁶ cm/s	3.8 ×10⁻⁶ cm/s	–
CC[C@@]1(O)C(=O)OCc2c1cc1n(c2=O)Cc2c-1nc1cc(F)c(C)c3c1c2[C@@](C)(N(C)CCO)CC3.Cl (single isomer, unassigned) [Compound 6-44, hydrochloride]	–	–	–	–	–	pIC50 (Jeko-1; Homo sapiens, JeKo-1, Table 1): 7.62; pIC50 (MDA-MB-468; Homo sapiens, MDA-MB-468): 6.70; CLint scaled ([1]; Table 1, human hepatocytes intrinsic clearance, read-out: HHEP Cl): 48.3 mL/min/kg; CLint scaled ([2]; microsomes, Table 1, human liver microsome clearance, read-out: HLM Cl): 51.7 mL/min/kg
CC[C@@]1(O)C(=O)OCc2c1cc1n(c2=O)Cc2c-1nc1cc(F)c(C)c3c1c2[C@H](CCCO)CC3 (single isomer, unassigned) [Compound 13-63]	9.36	141 min	27.1 min	34.7 ×10⁻⁶ cm/s	32.9 ×10⁻⁶ cm/s	–
CC[C@@]1(O)C(=O)OCc2c1cc1n(c2=O)Cc2c-1nc1cc(F)c(C)c3c1c2[C@](C)(CCO)CC3 (single isomer, unassigned) [Compound 14-70]	9.10	53.6 min	18.4 min	44.2 ×10⁻⁶ cm/s	28.5 ×10⁻⁶ cm/s	–
CC[C@@]1(O)C(=O)OCc2c1cc1n(c2=O)Cc2c-1nc1cc(F)c(C)c3c1c2[C@](C)(COCCO)CC3 (single isomer, unassigned) [Compound 16-82]	9.19	45 min	5.6 min	54.8 ×10⁻⁶ cm/s	25.5 ×10⁻⁶ cm/s	–
